{
  "source": "paper PMC7377239",
  "about": "“Cardiovascular Effects of Polychlorinated Biphenyls and Their Major Metabolites” (Environmental Health Perspectives, 2020)",
  "key": {"[1]": {"test_system": "iCell endothelial cells (human iPSC-derived ECs)", "experiment": "Tube formation (tubulogenesis) assay in iCell endothelial cells, 18 h", "format": "cell-based", "conditions": "Homo sapiens, Endothelial cell, 18 hr; for activity at 0.1 µM: 0.10 µM", "procedure,_shortened": "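Tube formation was measured by calcein AM imaging after overnight compound exposure (37°C, 0.5% DMSO vehicle) of human iPSC-derived ECs, 7,500/well, on reduced-growth-factor Geltrex in starvation medium. Vehicle-normalized data fitted to four-parameter logistic; POD set at one vehicle SD; without response, 100 μM taken as NOAEL.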"}, "[2]": {"test_system": "iCell endothelial cells (human iPSC-derived ECs)", "experiment": "High-content imaging cytotoxicity in iCell endothelial cells, 24 h", "format": "cell-based", "conditions": "Homo sapiens, Endothelial cell, 24 hr; for viability at 0.1 µM / activity at 0.1 µM: 0.10 µM", "procedure,_shortened": "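Readouts were vehicle-normalised and fitted to a four-parameter logistic model. POD was set at one SD beyond 0.5% DMSO control means, and 100 µM was assigned when no response was seen. Cells were monolayers of iCell endothelial cells imaged after 24 h compound exposure using nuclear, mitochondrial and calcein dyes.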"}, "[3]": {"conditions": "iPSC-EC tube formation, 0.00 µM control = 100.00, read-out: endo.mtl.18hr"}, "[4]": {"conditions": "iPSC-EC tube formation, 0.00 µM control = 100.00, read-out: endo.tlps.18hr"}, "[5]": {"conditions": "iPSC-EC tube formation, 0.00 µM control = 100.00, read-out: endo.tta.18hr"}, "[6]": {"conditions": "iPSC-EC tube formation, 0.00 µM control = 100.00, read-out: endo.ttl.18hr"}, "[7]": {"conditions": "iPSC-EC, 0.00 µM control = 100.00, read-out: endo.cyto.24hr"}, "[8]": {"conditions": "iPSC-EC, 0.00 µM control = 100.00, read-out: endo.mito.24hr"}, "[9]": {"conditions": "iPSC-EC, 0.00 µM control = 100.00, read-out: endo.mitoint.24hr"}, "[10]": {"conditions": "iPSC-EC, 0.00 µM control = 100.00, read-out: endo.nma.24hr"}, "[11]": {"conditions": "iPSC-EC, 0.00 µM control = 100.00, read-out: endo.tc.24hrs"}, "[12]": {"conditions": "endothelial cells (endo), tube formation mtl, read-out: POD endo.mtl.18hr"}, "[13]": {"conditions": "endothelial cells (endo), tube formation tlps, read-out: POD endo.tlps.18hr"}, "[14]": {"conditions": "endothelial cells (endo), tube formation tta, read-out: POD endo.tta.18hr"}, "[15]": {"conditions": "endothelial cells (endo), tube formation ttl, read-out: POD endo.ttl.18hr"}, "[16]": {"conditions": "endothelial cells (endo), cyto, read-out: POD endo.cyto.24hr"}, "[17]": {"conditions": "endothelial cells (endo), mito, read-out: POD endo.mito.24hr"}, "[18]": {"conditions": "endothelial cells (endo), mitoint, read-out: POD endo.mitoint.24hr"}, "[19]": {"conditions": "endothelial cells (endo), nma, read-out: POD endo.nma.24hr"}, "[20]": {"conditions": "endothelial cells (endo), tc, read-out: POD endo.tc.24hr"}},
  "note": "Structures can show the parent of a compound that is named as a salt. Where two headings read alike, the source gives them in different places.",
  "data": [
    {"smiles": "COc1ccc(-c2ccc(Cl)cc2)cc1", "note": "[4'-OMe PCB3]", "values": [
      {"measurement": "activity at 0.01 µM", "setting": "[1]; [3]", "result": 101, "unit": "%"},
      {"measurement": "activity at 0.01 µM", "setting": "[1]; [4]", "result": 95.9, "unit": "%"},
      {"measurement": "activity at 0.01 µM", "setting": "[1]; [5]", "result": 157, "unit": "%"},
      {"measurement": "activity at 0.01 µM", "setting": "[1]; [6]", "result": 149, "unit": "%"},
      {"measurement": "activity at 0.1 µM", "setting": "[1]; [3]", "result": 102, "unit": "%"},
      {"measurement": "activity at 0.1 µM", "setting": "[1]; [4]", "result": 127, "unit": "%"},
      {"measurement": "activity at 0.1 µM", "setting": "[1]; [5]", "result": 130, "unit": "%"},
      {"measurement": "activity at 0.1 µM", "setting": "[1]; [6]", "result": 124, "unit": "%"},
      {"measurement": "activity at 1 µM", "setting": "[1]; [3]", "result": 96, "unit": "%"},
      {"measurement": "activity at 1 µM", "setting": "[1]; [4]", "result": 95, "unit": "%"},
      {"measurement": "activity at 1 µM", "setting": "[1]; [5]", "result": 127, "unit": "%"},
      {"measurement": "activity at 1 µM", "setting": "[1]; [6]", "result": 123, "unit": "%"},
      {"measurement": "activity at 10 µM", "setting": "[1]; [3]", "result": 76, "unit": "%"},
      {"measurement": "activity at 10 µM", "setting": "[1]; [4]", "result": 82.1, "unit": "%"},
      {"measurement": "activity at 10 µM", "setting": "[1]; [5]", "result": 58.6, "unit": "%"},
      {"measurement": "activity at 10 µM", "setting": "[1]; [6]", "result": 56.5, "unit": "%"},
      {"measurement": "activity at 100 µM", "setting": "[1]; [3]", "result": 65.6, "unit": "%"},
      {"measurement": "activity at 100 µM", "setting": "[1]; [4]", "result": 33, "unit": "%"},
      {"measurement": "activity at 100 µM", "setting": "[1]; [5]", "result": 46.5, "unit": "%"},
      {"measurement": "activity at 100 µM", "setting": "[1]; [6]", "result": 46.3, "unit": "%"},
      {"measurement": "minimal effective concentration", "setting": "[1]; iPSC-EC tube formation, top concentration 100.00 µM, read-out: endo.mtl.18hr POD", "result": 3.4, "unit": "µM"},
      {"measurement": "minimal effective concentration", "setting": "[1]; iPSC-EC tube formation, top concentration 100.00 µM, read-out: endo.tlps.18hr POD", "result": 12.3, "unit": "µM"},
      {"measurement": "minimal effective concentration", "setting": "[1]; iPSC-EC tube formation, top concentration 100.00 µM, read-out: endo.tta.18hr POD", "result": 7.76, "unit": "µM"},
      {"measurement": "minimal effective concentration", "setting": "[1]; iPSC-EC tube formation, top concentration 100.00 µM, read-out: endo.ttl.18hr POD", "result": 7.16, "unit": "µM"},
      {"measurement": "viability at 0.01 µM", "setting": "[2]; [7]", "result": 93.4, "unit": "%"},
      {"measurement": "activity at 0.01 µM", "setting": "[2]; [8]", "result": 93.4, "unit": "%"},
      {"measurement": "activity at 0.01 µM", "setting": "[2]; [9]", "result": 107, "unit": "%"},
      {"measurement": "activity at 0.01 µM", "setting": "[2]; [10]", "result": 105, "unit": "%"},
      {"measurement": "viability at 0.01 µM", "setting": "[2]; [11]", "result": 93.4, "unit": "%"},
      {"measurement": "viability at 0.1 µM", "setting": "[2]; [7]", "result": 103, "unit": "%"},
      {"measurement": "activity at 0.1 µM", "setting": "[2]; [8]", "result": 103, "unit": "%"},
      {"measurement": "activity at 0.1 µM", "setting": "[2]; [9]", "result": 99.7, "unit": "%"},
      {"measurement": "activity at 0.1 µM", "setting": "[2]; [10]", "result": 98.5, "unit": "%"},
      {"measurement": "viability at 0.1 µM", "setting": "[2]; [11]", "result": 103, "unit": "%"},
      {"measurement": "viability at 1 µM", "setting": "[2]; [7]", "result": 95.6, "unit": "%"},
      {"measurement": "activity at 1 µM", "setting": "[2]; [8]", "result": 96, "unit": "%"},
      {"measurement": "activity at 1 µM", "setting": "[2]; [9]", "result": 102, "unit": "%"},
      {"measurement": "activity at 1 µM", "setting": "[2]; [10]", "result": 102, "unit": "%"},
      {"measurement": "viability at 1 µM", "setting": "[2]; [11]", "result": 95.6, "unit": "%"},
      {"measurement": "viability at 10 µM", "setting": "[2]; [7]", "result": 108, "unit": "%"},
      {"measurement": "activity at 10 µM", "setting": "[2]; [8]", "result": 109, "unit": "%"},
      {"measurement": "activity at 10 µM", "setting": "[2]; [9]", "result": 107, "unit": "%"},
      {"measurement": "activity at 10 µM", "setting": "[2]; [10]", "result": 95, "unit": "%"},
      {"measurement": "viability at 10 µM", "setting": "[2]; [11]", "result": 108, "unit": "%"},
      {"measurement": "viability at 100 µM", "setting": "[2]; [7]", "result": 93.3, "unit": "%"},
      {"measurement": "activity at 100 µM", "setting": "[2]; [8]", "result": 93.7, "unit": "%"},
      {"measurement": "activity at 100 µM", "setting": "[2]; [9]", "result": 119, "unit": "%"},
      {"measurement": "activity at 100 µM", "setting": "[2]; [10]", "result": 99.7, "unit": "%"},
      {"measurement": "viability at 100 µM", "setting": "[2]; [11]", "result": 93.5, "unit": "%"},
      {"measurement": "minimal effective concentration", "setting": "[2]; iPSC-EC, top concentration 100.00 µM, read-out: endo.cyto.24hr POD", "result": 100, "unit": "µM"},
      {"measurement": "minimal effective concentration", "setting": "[2]; iPSC-EC, top concentration 100.00 µM, read-out: endo.mito.24hr POD", "result": 100, "unit": "µM"},
      {"measurement": "minimal effective concentration", "setting": "[2]; iPSC-EC, top concentration 100.00 µM, read-out: endo.mitoint.24hr POD", "result": 20.5, "unit": "µM"},
      {"measurement": "minimal effective concentration", "setting": "[2]; iPSC-EC, top concentration 100.00 µM, read-out: endo.nma.24hr POD", "result": 100, "unit": "µM"},
      {"measurement": "minimal effective concentration", "setting": "[2]; iPSC-EC, top concentration 100.00 µM, read-out: endo.tc.24hrs POD", "result": 100, "unit": "µM"}
    ]},
    {"smiles": "O=S(=O)(O)Oc1cccc(-c2ccc(Cl)cc2)c1", "note": "[3'-PCB 3 sulfate]", "values": [
      {"measurement": "minimal effective concentration", "setting": "[1]; [12]", "result": 0.58, "unit": "µM"},
      {"measurement": "minimal effective concentration", "setting": "[1]; [13]", "result": 38.6, "unit": "µM"},
      {"measurement": "minimal effective concentration", "setting": "[1]; [14]", "result": 11.6, "unit": "µM"},
      {"measurement": "minimal effective concentration", "setting": "[1]; [15]", "result": 8.75, "unit": "µM"},
      {"measurement": "minimal effective concentration", "setting": "[2]; [16]", "result": 100, "unit": "µM"},
      {"measurement": "minimal effective concentration", "setting": "[2]; [17]", "result": 100, "unit": "µM"},
      {"measurement": "minimal effective concentration", "setting": "[2]; [18]", "result": 100, "unit": "µM"},
      {"measurement": "minimal effective concentration", "setting": "[2]; [19]", "result": 100, "unit": "µM"},
      {"measurement": "minimal effective concentration", "setting": "[2]; [20]", "result": 100, "unit": "µM"}
    ]},
    {"smiles": "Clc1ccc(Cl)c(-c2c(Cl)ccc(Cl)c2Cl)c1", "note": "[PCB 95, 2,2′,3,5′,6-pentachlorobiphenyl]", "values": [
      {"measurement": "minimal effective concentration", "setting": "[1]; [12]", "result": 48.6, "unit": "µM"},
      {"measurement": "minimal effective concentration", "setting": "[1]; [13]", "result": 53.9, "unit": "µM"},
      {"measurement": "minimal effective concentration", "setting": "[1]; [14]", "result": 48.7, "unit": "µM"},
      {"measurement": "minimal effective concentration", "setting": "[1]; [15]", "result": 55.7, "unit": "µM"},
      {"measurement": "minimal effective concentration", "setting": "[2]; [16]", "result": 100, "unit": "µM"},
      {"measurement": "minimal effective concentration", "setting": "[2]; [17]", "result": 100, "unit": "µM"},
      {"measurement": "minimal effective concentration", "setting": "[2]; [18]", "result": 100, "unit": "µM"},
      {"measurement": "minimal effective concentration", "setting": "[2]; [19]", "result": 100, "unit": "µM"},
      {"measurement": "minimal effective concentration", "setting": "[2]; [20]", "result": 100, "unit": "µM"}
    ]}
  ]
}
